Source: US7097969B2, “Non-endogenous, constitutively activated known G protein-coupled receptors” (Arena Pharmaceuticals, Inc., priority 2000, dated 2006)

B1: 24-IC3-SST2: non-endogenous human GPR24 in which the IC3 loop is replaced with that of SST2 (SEQ.ID.NO.:359) (protein, listed as Homo sapiens)
chain: MDLEASLLPTGPNASNTSDGPDNLTSAGSPPRTGSISYINIIMPSVFGTICLLGIIGNSTVIFAVVKKSKLHWCNNVPDIFIINLSVVDLLFLLGMPFMIHQLMGNGVWHFGETMCTLITAMDANSQFTSTYILTAMAIDRYLATVHPISSTKFRKPSVATLVICLLWALSFISITPVWLYARLIPFPGGAVGCGIRLPNPDTDLYWFTLYQFFLAFALPFVVITAAYVRILQKVKSSGIRVGSSKRKKSEKKVTRTAIAICLVFFVCWAPYYVLQLTQLSISRPTLTFVYLYNAAISLGYANSCLNPFVYIVLCETFRKRLVLSVKPAAQGQLRAVSNAQTADEERTESKGTYFPCHPAHLQVRAPQHATGRDAEKNPRPLGKCRKAGLGVVAMKIHSMGSHVAGEAWSQVWGFQISEIPWGSRMRPLDRTEAEQENMLVWITGC

How the values were obtained:
GPR24 [1] = test: Cell-based cAMP for Gi coupled target GPCRs, co-transfection with signal enhancer TSHR-A623I; design: species or system human; settings: FIG. 1; for decrease in cAMP production compared to TSHR-A623I with endogenous GPR24 (GPR24 wt): co-transfected with TSHR-A623I; for cAMP production: cells co-transfected with TSHR-A623I, in the presence of TSH
From the text: (§1) A Gi coupled receptor is known to inhibit adenylyl cyclase, and, therefore, decrease the level of cAMP production, which can make assessment of cAMP levels challenging. An effective technique in measuring the decrease in production of cAMP as an indication of constitutive activation of a receptor that predominantly couples Gi upon activation can be accomplished by co-transfecting a signal enhancer, e.g., a non-endogenous, constitutively activated receptor that predominantly couples with Gs upon activation (e.g., TSHR-A623I, disclosed below), with the Gi linked GPCR (such a technique is exemplified herein with the Gi coupled receptor, GPR24). As is apparent, constitutive activation of a Gs coupled receptor can be determined based upon an increase in production of cAMP. Constitutive activation of a Gi coupled receptor leads to a decrease in production cAMP. Thus, the co-transfection approach is intended to advantageously exploit these “opposite” affects. For example, co-transfection of a non-endogenous, constitutively activated Gs coupled receptor (the “signal enhancer”) with the endogenous Gi coupled receptor (the “target receptor”) provides a baseline cAMP signal (i.e., although the Gi coupled receptor will decrease cAMP levels, this “decrease” will be relative to the substantial increase in cAMP levels established by constitutively activated Gs coupled signal enhancer). By then co-transfecting the signal enhancer with a constitutively activated version of the target receptor, cAMP would be expected to further decrease (relative to base line) due to the increased functional activity of the Gi target (i.e., which decreases cAMP).
(§2) TSHR is a Gs coupled GPCR that causes the accumulation of cAMP upon activation. TSHR was constitutively activated by mutating amino acid residue 623 (i.e., changing an alanine residue to an isoleucine residue). See, SEQ.ID.NO.:402 for nucleic acid sequence and SEQ.ID.NO.:403 for deduced amino acid sequence. A Gi coupled receptor is expected to inhibit adenylyl cyclase, and, therefore, decrease the level of cAMP production, which can make assessment of cAMP levels challenging. An effective technique for measuring the decrease in production of cAMP as an indication of constitutive activation of a Gi coupled receptor can be accomplished by co-transfecting, most preferably, non-endogenous, constitutively activated TSHR (TSHR-A623I) (or an endogenous, constitutively active Gs coupled receptor) as a “signal enhancer” with a Gi linked target GPCR, such as GPR24, to establish a baseline level of cAMP. Upon creating a non-endogenous version of the Gi coupled receptor, this non-endogenous version of the target GPCR is then co-transfected with the signal enhancer, and it is this material that can be used for screening. We utilized such approach to effectively generate a signal when a cAMP assay is used; this approach is preferably used in the direct identification of candidate compounds against Gi coupled receptors. It is noted that for a Gi coupled GPCR, when this approach is used, an inverse agonist of the target GPCR will increase the cAMP signal and an agonist will decrease the cAMP signal.
(§3) On day one, 2×10^4 Hek-293 and Hek-293T cells/well were plated out. On day two, two reaction tubes were prepared (the proportions to follow for each tube are per plate): tube A was prepared by mixing 2 μg DNA of each receptor transfected into the mammalian cells, for a total of 4 μg DNA (e.g., pCMV vector; pCMV vector with mutated THSR (TSHR-A623I); TSHR-A623I and GPR24, etc.) in 1.2 ml serum free DMEM (Irvine Scientific, Irvine, Calif.); tube B was prepared by mixing 120 μl lipofectamine (Gibco BRL) in 1.2 ml serum free DMEM. Tubes A and B were then admixed by inversion (several times), followed by incubation at room temperature for 30–45 min. The admixture is referred to as the “transfection mixture”. Plated Hek-293 cells were washed with 1×PBS, followed by addition of 10 ml serum free DMEM. […]

GPR24 [2] = test: Intracellular IP3 accumulation assay (Gq-associated receptors); assay type: cell-based, human; settings: FIG. 4
Method: On day 1, cells comprising the receptors (endogenous and/or non-endogenous) can be plated onto 24 well plates, usually 1×10^5 cells/well (although this number can be optimized. On day 2 cells can be transfected by firstly mixing 0.25 μg DNA in 50 μL serum free DMEM/well and 2 μL lipofectamine in 50 μl serum-free DMEM/well. The solutions are gently mixed and incubated for 15–30 min at room temperature. Cells are washed with 0.5 ml PBS and 400 μl of serum free media is mixed with the transfection media and added to the cells. The cells are then incubated for 3–4 hrs at 37° C./5% CO2 and then the transfection media is removed and replaced with 1 ml/well of regular growth media. On day 3 the cells are labeled with ^3H-myo-inositol. Briefly, the media is removed and the cells are washed with 0.5 ml PBS. Then 0.5 ml inositol-free/serum free media (GIBCO BRL) is added/well with 0.25 μCi of ^3H-myo-inositol/well and the cells are incubated for 16–18 hrs o/n at 37° C./5% CO2. On Day 4 the cells are washed with 0.5 ml PBS and 0.45 ml of assay medium is added containing inositol-free/serum free media 10 μM pargyline 10 mM lithium chloride or 0.4 ml of assay medium and 50 μL of 10× ketanserin (ket) to final concentration of 10 μM. The cells are then incubated for 30 min at 37° C. […]

GPR5 = test: Cell-based cAMP for Gi coupled target GPCRs, co-transfection with signal enhancer TSHR-A623I; design: species or system human; settings: FIG. 2
From the text: as §1, §2, §3

Molecule	decrease in cAMP production compared to TSHR-A623I with endogenous GPR24 (GPR24 wt) (GPR24 [1]) [%]	increase in IP3 accumulation compared to the endogenous version of GPR24 (GPR24 wt) (GPR24 [2]) [%]	cAMP production (GPR24 [1]) [pmol cAMP/well]	cAMP production (GPR5; cells co-transfected with TSHR-A623I, in the presence of TSH) [pmol cAMP/well]	decrease in production of cAMP against pCMV co-transfected with TSHR-A623I (GPR5; reference pCMV + TSHR-A623I 106.75 pmol cAMP/well) [%]
I261Q: non-endogenous version of the human GPR24 receptor with I261Q mutation (SEQ.ID.NO.:387)	~27	~32	–	–	–
GPR24 wt: endogenous human GPR24 (also known as MCH or SLC-1) receptor [reference compound]	–	–	336.5	–	–
GPR5 wt: endogenous target receptor GPR5	–	–	–	58.79	~45
B1	~22	~27	262.266	–	–
